One test has as its target calpain II from rabbit. Kind of test: Calpain II inhibition, Suc-Leu-Tyr-AMC (Table PKC1). The test is classed as biochemical. The conditions noted are these: 20 mM Hepes, 10 mM CaCl2, 10 mM β-mercaptoethanol, pH 7.2; read-out: Ki CII (Calpain II). The procedure:
Our discovery of Peptide Keto-Compounds effective as Calpain Inhibitors was made through assay of the Peptide Keto-Compounds as reversible inhibitors. Various concentrations of inhibitors in dimethylsulfoxide (DMSO) were added to the assay mixture, which contained buffer and substrate. The reaction was started by the addition of the enzyme and the hydrolysis rates were followed spectrophotometrically or fluorimetrically. 88 mM KH2 PO4, 12 mM Na2 HPO4, 1.33 mM EDTA, 2.7 mM cysteine, pH 6.0 was used as a buffer for cathepsin B; and 20 mM Hepes, 10 mM CaCl2, 10 mM β-mercaptoethanol, pH 7.2 buffer was utilized for calpain I and calpain II.
All peptide thioester hydrolysis rates were measured with assay mixtures containing 4,4'-dithiodipyridine [e324=19800 M-1 cm-1; Grasetti & Murray, Arch. Biochem. Biophys. 119, pp 41-49 (1967)]. Papain was assayed with Bz-Arg-AMC or Bz-Arg-NA [Kanaoka et al., Chem. Pharm. Bull. 25, 3126-3128 (1977)], and the AMC (7-amino-4-methylcoumarin) release was followed fluorimetrically (excitation at 380 nm, and emission at 460 nm). Cathepsin B was assayed with Z-Arg-Arg-AFC [Barrett and Kirschke, Methods Enzymol. 80, 535-561 (1981)], and the AFC (7-amino-4-trifluoromethylcoumarin) release was followed fluorimetrically (excitation at 400 nm, and emission at 505 nm). Calpain I from human erythrocytes and calpain II from rabbit were assayed using Suc-Leu-Tyr-AMC [Sasaki et al., J. Biol. Chem. 259, 12489-12494 (1984), hereby incorporated by reference], and the AMC (7-amino-4-methylcoumarin) release was followed fluorimetrically (excitation at 380 nm, and emission at 460 nm). Enzymatic hydrolysis rates were measured at various substrate and inhibitor concentrations, and Ki values were determined by Dixon plot.

Test [1] concerns the target T1, Calpain I from human erythrocytes (Homo sapiens, UniProt P07384).
T1 construct: Calpain I from human erythrocytes and calpain II from rabbit were assayed using Suc-Leu-Tyr-AMC; from tissue; host or cells: human erythrocytes
T1 sequence (P07384 1-714): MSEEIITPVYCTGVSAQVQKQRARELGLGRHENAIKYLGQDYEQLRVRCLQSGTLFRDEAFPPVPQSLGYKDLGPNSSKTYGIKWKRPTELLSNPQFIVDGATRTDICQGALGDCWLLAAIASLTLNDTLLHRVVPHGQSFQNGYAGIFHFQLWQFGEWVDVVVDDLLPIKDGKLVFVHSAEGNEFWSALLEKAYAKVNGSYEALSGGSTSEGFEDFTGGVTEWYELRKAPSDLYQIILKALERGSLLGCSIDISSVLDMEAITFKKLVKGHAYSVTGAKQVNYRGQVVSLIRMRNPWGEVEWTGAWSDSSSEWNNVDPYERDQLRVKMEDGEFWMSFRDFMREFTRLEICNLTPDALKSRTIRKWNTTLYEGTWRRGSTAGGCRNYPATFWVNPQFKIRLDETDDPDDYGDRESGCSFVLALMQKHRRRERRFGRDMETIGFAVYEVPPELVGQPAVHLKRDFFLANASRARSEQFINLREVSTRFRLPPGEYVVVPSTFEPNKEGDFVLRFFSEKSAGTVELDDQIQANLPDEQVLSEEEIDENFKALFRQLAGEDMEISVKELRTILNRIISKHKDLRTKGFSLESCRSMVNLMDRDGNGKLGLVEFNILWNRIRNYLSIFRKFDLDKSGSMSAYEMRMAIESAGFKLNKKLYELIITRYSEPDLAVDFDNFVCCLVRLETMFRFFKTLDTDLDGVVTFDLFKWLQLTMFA
T1 sequence (P04632 1-268 partner): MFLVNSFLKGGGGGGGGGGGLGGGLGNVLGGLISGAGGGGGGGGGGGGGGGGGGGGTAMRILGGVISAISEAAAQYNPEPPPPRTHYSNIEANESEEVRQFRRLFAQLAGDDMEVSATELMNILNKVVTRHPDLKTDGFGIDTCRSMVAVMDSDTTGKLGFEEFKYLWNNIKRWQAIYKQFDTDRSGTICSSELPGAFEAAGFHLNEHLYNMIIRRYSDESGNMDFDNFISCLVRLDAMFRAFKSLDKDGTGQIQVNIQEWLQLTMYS
Kind of test: Calpain I Ki (Table 1B(i)). The test is classed as biochemical. To be noted: Suc-Leu-Tyr-amidomethylcoumarin, HEPES pH 7.2. The procedure:
The Peptide Keto-Compounds are reversible inhibitors of Calpains and other thiol proteases. […] Cathepsin B from bovine spleen was assayed using Z-Lys-4-nitrophenylphosphate as substrate.
The Ki value for the inhibition of Calpains and cathepsin B by several Peptide Keto-Compounds are shown in μM (micromolar). The values for leupeptin, which is commercially available from Calbiochem of La Jolla, Calif., are shown for comparison.

Another test has as its system hippocampal slices. Kind of test: Hippocampal slice survival after 10 min anoxia (Example 7A). The format is cell-based, rat. The procedure: Hippocampal slices (400 um) were prepared from Sprague Dawley rats (6 to 7 weeks) and maintained in an interface chamber at 35° C. using conventional techniques, i.e., the lower surface of the slice received a constant perfusion (0.5 ml/min) of ACSF, while the upper surface was exposed to a moist atmosphere of O2 :CO2 (95%:5%) exchanged at a rate of 2 L/min. The ACSF medium contains (in mM): NaCl (124), KCl (3), KHPO4 (2.5), CaCl (3.4), NaHCO3 (26) and D-Glucose (10). Field excitatory post-synaptic responses were recorded from stratum radiatum of CAlb in response to stimulation of Schaffer-commissural fibers in CAla or CAlc. The depth of the recording electrode was optimized and evoked responses were collected at a rate of one evoked response every 30 seconds.
For the initial screening procedure, 14 to 16 slices are harvested from the hippocampus of a single rat and placed in a common ACSF bath. Each slice is tested in sequence to determine the magnitude of its pre-anoxic evoked response. Five stimulation pulses (each 0.1 ms (millisecond) in duration) were presented over a 15 second interval. The largest evoked response was noted and recorded for each slice.
After the one hour drug incubation period, the oxygen-enriched atmosphere of the chamber was made anoxic by substituting nitrogen for oxygen (N2 =95%; CO^2 =5%). The slices were retained in this anoxic environment for 10 minutes, following which the oxygen-enriched atmosphere (O^2 =95%; CO2 =5%) was reestablished.
The slices were given the opportunity to recover for 30 minutes following reoxygenation whereupon each was stimulated and the maximum evoked potential determined, as described above during the pre-anoxia period. Those slices which, after anoxia, produced a maximum evoked potential of greater than 50% of that observed prior to anoxia were defined as surviving slices.

Consider eight compounds from patent publication US5444042A, “Method of treatment of neurodegeneration with calpain inhibitors” (Cortex Pharmaceuticals, priority 1994, dated 1995).

The structures appear in SMILES notation. Entries after “also recorded” stand apart in the source; their conditions may differ. Where a SMILES comes first, the peptide text is derived from it. The star is where a group is joined. Boc = CC(C)(C)OC(=O)*; CH2Cl = ClC*

The term Ki denotes the equilibrium dissociation constant of an inhibitor or competing ligand from its target. As for `CCOC(=O)C(=O)C(CC)NC(=O)[C@H](C)NC(=O)[C@H](C)NC(=O)OCc1ccccc1` (mixture of isomers) [Z-Ala-Ala-DL-Abu-COOEt, Z-Ala-Ala-DL-Abu-CO2 Et], the Ki at calpain II from rabbit stood at 200000 nM; in test [1], 50000 nM. Consider `CCOC(=O)C(=O)[C@H](CC)NC(=O)[C@H](CC(C)C)NC(=O)OCc1ccccc1` (racemic) [Z-Leu-Abu-COOEt, Z-Leu-DL-Abu-COOEt], for which the figures for the Ki (on calpain II from rabbit; in test [1]) were 400 nM and 40 nM, respectively. Further, the “protection of slices from anoxia (FIG. 3)” value in the test with hippocampal slices (10 minutes anoxic atmosphere, listed as CX218) is “protected from the effects of anoxia; also recorded: significantly more effective”. The “Survival of slices after ten minutes anoxia” value (from here on “Survival of slices”) in the test with hippocampal slices (Dose 100 μM, incubation 1 hour) turned out to be 70%. Take `CCCC(NC(=O)[C@H](CC(C)C)NC(=O)OCc1ccccc1)C(=O)C(=O)OCC` (mixture of isomers) [Z-Leu-Nva-COOEt, Z-Leu-DL-Nva-COOEt]: the Ki at calpain II from rabbit is 1200 nM. Take `CC(C)CC(NC(=O)CNC(=O)OC(C)(C)C)C(=O)NC(Cc1ccccc1)C(=O)CCl` (stereo not drawn) [Boc-Gly-Leu-Phe-CH2 Cl] (Boc-Gly-Leu-Phe-CH2Cl; configuration not given here): the “Survival of slices” value with hippocampal slices (Dose 50 μM, incubation 1 hour) turned out to be 50%. In test [1], `CC(=O)N[C@@H](CC(C)C)C(=O)N[C@@H](CC(C)C)C(=O)N[C@H](C=O)CCCNC(=N)N` [Leupeptin, Ac-Leu-Leu-Arg-H, reference compound] had a Ki of 320 nM. In addition, the “Survival of slices” value in the test with hippocampal slices (Dose 1000 μM, incubation 3 hours) was found to be 50%. `N=C(N)SCCCOc1oc(=O)c2cc(N)ccc2c1Cl` [NH2 -CiTPrOIC (ACITIC), 7-amino-4-chloro-3-(3-isothiureidopropoxy)isocoumarin]: in the test with hippocampal slices (Dose 20 μM, incubation 1 hour), the “Survival of slices” value amounted to 50%.

For the compound `CCCCC(NC(=O)C(CC(C)C)NC(=O)OCc1ccccc1)C(=O)C(=O)OCC` (stereo not drawn) [Z-Leu-Nle-COOEt, Z-Leu-NLeu-CO2 Et], the inhibition constant Ki on calpain II from rabbit is 180 nM. Turning to `CCOC(=O)C(=O)C(Cc1ccccc1)NC(=O)C(CC(C)C)NC(=O)OCc1ccccc1` (stereo not drawn) [Z-Leu-Phe-COOEt], the Ki on calpain II from rabbit is 400 nM.
